Test results as given in patent publication US7109193B2, “Tricyclic diazepines tocolytic oxytocin receptor antagonists” (Wyeth, priority 2001, dated 2006).

Biological target: T1, human vasopressin V1a receptor subtype (Homo sapiens, UniProt P37288)
T1 construct: host or cells: CHO cells (pZeoSV vector for the Thibonnier line)
Experiment: Vasopressin binding in Chinese Hamster Ovary cell membranes expressing human vasopressin V1a subtype receptors
Settings: 100 nM, CHO cell membranes, [3H]Manning ligand, values without parentheses
How it was run: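 Displacement of [3H]Manning ligand (8 nM working solution) from human V1a receptors in CHO cell membranes, 25–50 μg protein per well. Incubation ran 60 min at room temperature in 50 mM Tris-HCl pH 7.4 with protease inhibitors, followed by filtration and scintillation counting. Results are given as IC50 or percent inhibition.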

T1 sequence (P37288 whole entry): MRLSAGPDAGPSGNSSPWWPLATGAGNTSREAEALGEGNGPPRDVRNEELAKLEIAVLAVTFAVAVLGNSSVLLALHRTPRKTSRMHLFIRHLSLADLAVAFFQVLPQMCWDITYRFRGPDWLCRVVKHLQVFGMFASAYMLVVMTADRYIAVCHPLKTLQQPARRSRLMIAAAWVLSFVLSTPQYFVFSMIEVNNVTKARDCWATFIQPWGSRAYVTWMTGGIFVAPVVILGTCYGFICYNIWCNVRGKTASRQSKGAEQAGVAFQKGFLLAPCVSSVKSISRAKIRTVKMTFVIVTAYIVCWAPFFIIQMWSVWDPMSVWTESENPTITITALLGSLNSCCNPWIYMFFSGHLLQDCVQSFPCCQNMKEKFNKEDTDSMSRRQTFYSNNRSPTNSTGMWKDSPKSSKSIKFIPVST

inhibition at 0.1 µM [%]	SMILES
18	COc1ccccc1-c1ccc(C(=O)N2Cc3ccc(C(=O)NCCC4CCCN4C)n3Cc3ccccc32)cc1C (stereo not shown) [Example 162, 10-[(2′-Methoxy-2-methyl[1,1′-biphenyl]-4-yl)carbonyl]-N-[2-(1-methyl-2-pyrrolidinyl)ethyl]-10,11-dihydro-5H-pyrrolo[2,1-c][1,4]benzodiazepine-3-carboxamide]
1	C=CCN1CCN(C(=O)c2ccc3n2Cc2ccccc2N(C(=O)c2ccc(-c4ccccc4C)cc2)C3)CC1 [Example 224, (4-Allyl-1-piperazinyl){10-[(2′-methyl[1,1′-biphenyl]-4-yl)carbonyl]-10,11-dihydro-5H -pyrrolo[2,1-c][1,4]benzodiazepin-3-yl}methanone]
-6	CN(C)CCN1CCN(C(=O)c2ccc3n2Cc2ccccc2N(C(=O)c2ccc(-c4cccc5ccccc45)cc2Cl)C3)CC1 [Example 205, {10-[2-Chloro-4-(1-naphthyl)benzoyl]-10,11-dihydro-5H-pyrrolo[2,1-c][1,4]benzodiazepin-3-yl}{4-[2-(dimethylamino)ethyl]-1-piperazinyl}methanone]
9	COc1cccc(-c2cc(OC)c(C(=O)N3Cc4ccc(C(=O)NCCC5CCCN5C)n4Cc4ccccc43)cc2Cl)c1 (stereo not shown) [Example 169, 10-[(6-Chloro-3,3′-dimethoxy[1,1′-biphenyl]-4-yl)carbonyl]-N-[2-(1-methyl-2-pyrrolidinyl)ethyl]-10,11-dihydro-5H-pyrrolo[2,1-c][1,4]benzodiazepine-3-carboxamide]
81	COc1ccccc1-c1ccc(C(=O)N2Cc3ccc(C(=O)N(C)C4CCN(C)C4)n3Cc3ccccc32)cc1 (stereo not shown) [Example 187, 10-[(2′-Methoxy[1,1′-biphenyl]-4-yl)carbonyl]-N-methyl-N-(1-methyl-3-pyrrolidinyl)-10,11-dihydro-5H-pyrrolo[2,1-c][1,4]benzodiazepine-3-carboxamide]
44	COc1cccc(-c2ccc(C(=O)N3Cc4ccc(C(=O)NCCN5CCCCC5)n4Cc4ccccc43)cc2OC)c1 [Example 159, 10-[(2,3′-Dimethoxy[1,1′-biphenyl]-4-yl)carbonyl]-N-[2-(1-piperidinyl)ethyl]-10,11-dihydro-5H-pyrrolo[2,1-c][1,4]benzodiazepine-3-carboxamide]
8	COc1cc(-c2ccccc2C)c(Cl)cc1C(=O)N1Cc2ccc(C(=O)NCCC3CCCN3C)n2Cc2ccccc21 (stereo not shown) [Example 168, 10-[(6-Chloro-3-methoxy-2′-methyl[1,1′-biphenyl]-4-yl)carbonyl]-N-[2-(1-methyl-2-pyrrolidinyl)ethyl]-10,11-dihydro-5H-pyrrolo[2,1-c][1,4]benzodiazepine-3-carboxamide]
5	COc1cc(C(=O)N2Cc3ccc(C(=O)NCCN4CCCCC4)n3Cc3ccccc32)ccc1-c1cccc2ccccc12 [Example 157, 10-[3-Methoxy-4-(1-naphthyl)benzoyl]-N-[2-(1-piperidinyl)ethyl]-10,11-dihydro-5H-pyrrolo[2,1-c][1,4]benzodiazepine-3-carboxamide]
4	COc1cc(C(=O)N2Cc3ccc(C(=O)N4CCN(CCN(C)C)CC4)n3Cc3ccccc32)ccc1-c1cccc2ccccc12 [Example 203, {4-[2-(Dimethylamino)ethyl]-1-piperazinyl}{10-[3-methoxy-4-(1-naphthyl)benzoyl]-10,11-dihydro-5H-pyrrolo[2,1-c][1,4]benzodiazepin-3-yl}methanone]
64	Cc1ccccc1-c1ccc(C(=O)N2Cc3ccc(C(=O)N4CCN(CCN5CCOCC5)CC4)n3Cc3ccccc32)cc1 [Example 209, {10-[(2′-Methyl[1,1′-biphenyl]-4-yl)carbonyl]-10,11-dihydro-5H-pyrrolo[2,1-c][1,4]benzodiazepin-3-yl}{4-[2-(4-morpholinyl)ethyl]-1-piperazinyl}methanone]
21	COc1cc(C(=O)N2Cc3ccc(C(=O)NCCC4CCCN4C)n3Cc3ccccc32)ccc1-c1cccc2ccccc12 (stereo not shown) [Example 170, 10-[3-Methoxy-4-(1-naphthyl)benzoyl]-N-[2-(1-methyl-2-pyrrolidinyl)ethyl]-10,11-dihydro-5H-pyrrolo[2,1-c][1,4]benzodiazepine-3-carboxamide]
79	Cc1ccccc1-c1ccc(C(=O)N2Cc3ccc(C(=O)N(C)C4CCN(C)CC4)n3Cc3ccccc32)cc1 [Example 178, N-Methyl-10-[(2′-methyl[1,1′-biphenyl]-4-yl)carbonyl]-N-(1-methyl-4-piperidinyl)-10,11-dihydro-5H-pyrrolo[2,1-c][1,4]benzodiazepine-3-carboxamide]
28	COc1ccccc1-c1ccc(C(=O)N2Cc3ccc(C(=O)N(C)C4CCN(C)CC4)n3Cc3ccccc32)cc1C [Example 175, 10-[(2′-Methoxy-2-methyl[1,1′-biphenyl]-4-yl)carbonyl]-N-methyl-N-(1-methyl-4-piperidinyl)-10,11-dihydro-5H-pyrrolo[2,1-c][1,4]benzodiazepine-3-carboxamide]
2	C=CCN1CCN(C(=O)c2ccc3n2Cc2ccccc2N(C(=O)c2ccc(-c4ccccc4OC)c(OC)c2)C3)CC1 [Example 227, (4-Allyl-1-piperazinyl){10-[(2,2′-dimethoxy[1,1′-biphenyl]-4-yl)carbonyl]-10,11-dihydro-5H -pyrrolo[2,1-c][1,4]benzodiazepin-3-yl}methanone]
31	COc1cc(C(=O)N2Cc3ccc(C(=O)N(C)C4CCN(C)C4)n3Cc3ccccc32)ccc1-c1cccc2ccccc12 (stereo not shown) [Example 192, 10-[3-Methoxy-4-(1-naphthyl)benzoyl]-N-methyl-N-(1-methyl-3-pyrrolidinyl)-10,11-dihydro-5H-pyrrolo[2,1-c][1,4]benzodiazepine-3-carboxamide]
0	Cc1cc(C(=O)N2Cc3ccc(C(=O)N(C)C4CCN(C)CC4)n3Cc3ccccc32)ccc1-c1ccccc1C(F)(F)F [Example 184, N-Methyl-N-(1-methyl-4-piperidinyl)-10-{[2-methyl-2′-(trifluoromethyl)[1,1′-biphenyl]-4-yl]carbonyl}-10,11-dihydro-5H-pyrrolo[2,1-c][1,4]benzodiazepine-3-carboxamide]
2	Cc1cc(C(=O)N2Cc3ccc(C(=O)N4CCN(C(=O)OC(C)(C)C)CC4)n3Cc3ccccc32)ccc1-c1ccccc1C(F)(F)F [Example 6, 4-[[10,11-Dihydro-10-[[2-methyl-2′-trifluoromethyl[1,1′-biphenyl]-4-yl]carbonyl]-5H-pyrrolo[2,1-c][1,4]benzodiazepin-3-yl]carbonyl]-1-piperazine-carboxylic acid, tert-butyl ester]
39	COc1cc(C(=O)N2Cc3ccc(C(=O)N4CCN(C(C)C)CC4)n3Cc3ccccc32)ccc1-c1ccccc1C [Example 237, (4-isopropyl-1-piperazinyl){10-[(2-methoxy-2′-methyl[1,1′-biphenyl]-4-yl)carbonyl]-10,11-dihydro-5H-pyrrolo[2,1-c][1,4]benzodiazepin-3-yl}methanone]
37	COc1ccccc1-c1ccc(C(=O)N2Cc3ccc(C(=O)N(C)C4CCN(C)C4)n3Cc3ccccc32)cc1C (stereo not shown) [Example 185, 10-[(2′-Methoxy-2-methyl[1,1′-biphenyl]-4-yl)carbonyl]-N-methyl-N-(1-methyl-3-pyrrolidinyl)-10,11-dihydro-5H-pyrrolo[2,1-c][1,4]benzodiazepine-3-carboxamide]
3	C=CCN1CCN(C(=O)c2ccc3n2Cc2ccccc2N(C(=O)c2ccc(-c4ccccc4C(F)(F)F)c(C)c2)C3)CC1 [Example 230, (4-Allyl-1-piperazinyl)(10-{[2-methyl-2′-(trifluoromethyl)[1,1′-biphenyl]-4-yl]carbonyl}-10,11-dihydro-5H-pyrrolo[2,1-c][1,4]benzodiazepin-3-yl)methanone]
9	COc1cccc(-c2ccc(C(=O)N3Cc4ccc(C(=O)N5CCN(C(C)C)CC5)n4Cc4ccccc43)cc2C)c1 [Example 235, (4-Isopropyl-1-piperazinyl){10-[(3′-methoxy-2-methyl[1,1′-biphenyl]-4-yl)carbonyl]-10,11-dihydro-5H-pyrrolo[2,1-c][1,4]benzodiazepin-3-yl}methanone]
3	COc1cc(-c2ccccc2C)c(Cl)cc1C(=O)N1Cc2ccc(C(=O)N3CCN(C(C)C)CC3)n2Cc2ccccc21 [Example 238, {10-[(6-Chloro-3-methoxy-2′-methyl[1,1′-biphenyl]-4-yl)carbonyl]-10,11-dihydro-5H -pyrrolo[2,1-c][1,4]benzodiazepin-3-yl}(4-isopropyl-1-piperazinyl)methanone]
33	COc1cccc(-c2ccc(C(=O)N3Cc4ccc(C(=O)N5CCN(C(C)C)CC5)n4Cc4ccccc43)cc2OC)c1 [Example 242, {10-[(2,3′-Dimethoxy[1,1′-biphenyl]-4-yl)carbonyl]-10,11-dihydro-5H-pyrrolo[2,1-c][1,4]benzodiazepin-3-yl}(4-isopropyl-1-piperazinyl)methanone]
26	COc1cc(-c2ccccc2C)c(Cl)cc1C(=O)N1Cc2ccc(C(=O)N(C)C3CCN(C)CC3)n2Cc2ccccc21 [Example 180, 10-[(6-Chloro-3-methoxy-2′-methyl[1,1′-biphenyl]-4-yl)carbonyl]-N-methyl-N-(1-methyl-4-piperidinyl)-10,11-dihydro-5H-pyrrolo[2,1-c][1,4]benzodiazepine-3-carboxamide]
14	COc1cc(C(=O)N2Cc3ccc(C(=O)N(C)C4CCN(C)CC4)n3Cc3ccccc32)ccc1-c1cccc2ccccc12 [Example 182, 10-[3-Methoxy-4-(1-naphthyl)benzoyl]-N-methyl-N-(1-methyl-4-piperidinyl)-10,11-dihydro-5H-pyrrolo[2,1-c][1,4]benzodiazepine-3-carboxamide]
